Experimental data published in patent publication US20250289879A1, “THERAPEUTIC MODULATION OF GENES IN MYELOID LINEAGE CELLS AND USES THEREOF IN OPHTHALMOLOGY” (The Children's Medical Center Corporation, priority 2022, published 2025).

What was measured:
laser-induced CNV mice = settings: previously reported (ref 49), vs control treatment; cited from earlier work
SOCS3 = settings: reported (refs 56, 57, 49); cited from earlier work
OIR mice = test: Oxygen-induced retinopathy (OIR) mouse model, NV and VO areas on retinal flat mounts; type: in vivo
Description: OIR was carried out using neonatal mice as described previously (Smith et al., 1994). Briefly, mouse pups with nursing female mice were exposed to 75% oxygen from postnatal day (P) 7 to 12, then returned to room air until to P17 for phenotypical analysis and gene expression at indicated time. For phenotypical analysis, the retinas were collected at P17, dissected, and stained with fluorescent dye conjugated-Griffonia Simplicifolia Isolectin IB4 (Invitrogen) overnight and flat-mounted. The avascular (vasoobliteration, VO) and pathological neovascularization (NV) areas were quantified (Connor et al., 2009) by masked researchers using Image J (National Institutes of Health, imagej.nih.gov/ij/) and Adobe Photoshop (Adobe Systems). The exclusion criteria for the OIR mouse model was used as described previously. Mice with bodyweight less than 5 grams at P17 were excluded from the study (Stahl et al., 2010).
OIR was carried out using neonatal mice as described previously^81. Briefly, mouse pups with nursing female mice were exposed to 75% oxygen from postnatal day (P) 7 to 12, then returned to room air until P17 for phenotypical analysis and gene expression analysis at indicated times. For phenotypical analysis, the retinas were collected at P17, dissected, and stained with fluorescent dye conjugated with Griffonia Simplicifolia Isolectin IB4 (Invitrogen) overnight and flat-mounted. The avascular (vaso-obliteration, VO) and pathological NV areas were quantified^82 by masked researchers using Image J (National Institutes of Health) and fully automated deep learning segmentation method^83. The exclusion criteria for the OIR mouse model were used as previously described^84.
SOCS3 agonist, naringenin (400 mg/kg/day, gavage) 49, and control reagents were administrated to C57BL/6J OIR mice from P12 to P16. SOCS3 peptidomimetic and negative control (NC) peptides were synthesized and purified as described 74. […] The identity and purity of main products were evaluated by LC-MS and purified compounds were lyophilized and stored at −20° C. until use. […]

O=C1C[C@@H](c2ccc(O)cc2)Oc2cc(O)cc(O)c21 [naringenin]
effect on laser-induced CNV, in words (laser-induced CNV mice): significantly suppresses laser-induced CNV
SOCS3 expression, in words (SOCS3): induces SOCS3 expression
effect on retinal neovascularization (NV), in words (OIR mice; OIR retinas at P17, vs control treatment): significantly reduced NV
effect on vaso-obliteration (VO) / blood vessel loss, in words (OIR mice; OIR retinas, vs control treatment): without influencing VO
reduction of NV at P17 compared to controls (OIR mice; naringenin treatment from P12 to P16, 400 mg/kg/day, C57BL/6J OIR mice): about 50%
